One series concerns the target Cyclooxygenase. Nature of the series: Enzyme assay, inhibition of cyclooxygenase (method based on Borgeat et al). The format is biochemical.
Another series addresses Lipoxygenase. Nature of the series: Enzyme assay, inhibition of lipoxygenase (method based on Borgeat et al). It is filed as biochemical.
The nature of series [1]: Storage stability at normal room temperature in sealed containers, analysed by T.l.c. The format is physicochemical. Particulars: freshly prepared samples, T.l.c. at regular intervals. An excerpt: Freshly prepared samples of the compound of Example 29/30B and the compound 2B (the latter also being disclosed in European Specification 55 418) were stored separately at normal room temperature in sealed containers and analysed at regular intervals by T.l.c.

Another series deals with Prostaglandin E2. Nature of the series: Prostaglandin synthesis in carrageenin sponge exudates. The format is in vivo. Particulars: Rattus norvegicus, po; male rats, carrageenin sponge exudate collected at 24 hours; read-out: ED50 Prostaglandin Production (rat). As to the method:
(§1) The compound of Example 29/3UB was subjected to the following tests. Results are given in Table II as ED50 mg/kg upon oral administration.
(§2) Inflammatory exudates were collected 24 hours after the subcutaneous implantation in male rats (180-220g) of sterile polyester sponges impregnated with 2% carrageenin. Prostaglandin E2 concentrations in sponge exudates were measured by bioassay and total leucocyte numbers were estimated using counting chambers and phase contrast microscopy. Drugs were administered orally in aqueous solution to groups of five animals at the time of sponge implantation, 5-8 hours later and 3 hours before sponge removal. Results are expressed as a percentage of control values obtained from similar groups of animals receiving vehicle alone. ED50 values were calculated for active compounds. The full dose-response data for lead compounds were subjected to regression analysis and ED50 values with 95% confidence limits were obtained.

A further series deals with total leucocyte numbers. Nature of the series: Leucocyte accumulation in carrageenin sponge exudates. It is filed as in vivo. Particulars: Rattus norvegicus, po, male rats, carrageenin sponge exudate collected at 24 hours. The procedure:
as §1, §2

Another series deals with female rats. Description: Carrageenin-induced paw oedema. It is filed as in vivo. Particulars: Rattus norvegicus, po, swelling measured 1-4 hours after carrageenin. The procedure: as §1
Oedema was induced by the sub-plantar injection of 2% carrageenin (0.1 ml) in the hind paws of female rats (100-130g). Swelling was measured 1-4 hours following carrageenin injection using a micrometer gauge. Drugs in aqueous solution were administered orally to groups of five rats at the time of carrageenin injection. Mean swelling was expressed as a percentage of control values obtained from similar groups of animals receiving vehicle alone.

In a further series the test system is female mice. Description: Phenylbenzoquinone (PBQ) induced writhing. It is filed as in vivo. The conditions noted are these: Mus musculus, po, p.o. 1 hour before PBQ 2.5 mg/kg i.p. As to the method: as §1
Writhing was induced in groups of 5 female mice (20-25g) following the intraperitoneal injection of phenylbenzoquinone (PBQ; 2.5 mg/kg). Anti- nociceptive effects of drugs were assessed by observing the reduction in writhing responses 10-12½ min after PBQ injection. Drugs were administered orally in aqueous solution 1 hour before PBQ injection and drug effects were expressed as a percentage of control values obtained from animals receiving vehicle alone.

Each structure is given as a SMILES string.

In the case of `C=CCN(C=O)C1=NN(c2cccc(C(F)(F)F)c2)CC1` [Example 3A, N-(2-propenyl)-N-[1-(3-trifluoromethylphenyl)-2-pyrazolin-3-yl]formamide], the 50% inhibitory concentration (IC50) was 5 µM against Cyclooxygenase and 2 µM at Lipoxygenase.

For `O=CN(CC=Cc1ccccc1)C1=NN(c2cccc(C(F)(F)F)c2)CC1` [Example 9A, N-(cinnamyl)-N-[1-(3-trifluoromethylphenyl)-2-pyrazolin-3-yl]formamide], the IC50 was found to be 2 µM against Cyclooxygenase and 1.5 µM against Lipoxygenase.

As for `O=CN(CC1CC1)C1=NN(c2cccc(C(F)(F)F)c2)CC1` [Example 8A, N-(cyclopropylmethyl)-N-[1-(3-trifluoromethylphenyl)-2-pyrazolin-3-yl]formamide], the half-inhibitory concentration (IC50) on Cyclooxygenase worked out at 8 µM; on Lipoxygenase, 2 µM.

On to `CCC(=O)N(C)C1=NN(c2cccc(C(F)(F)F)c2)CC1` [Example 32, N-methyl-N-[1-(3-trifluoromethylphenyl)-2-pyrazolin-3-yl]propionamide], for which the values for the IC50 on Cyclooxygenase and at Lipoxygenase were greater than 10 µM and 1 µM, respectively.

In the case of `CC(=O)N(C)C1=NN(c2ccc(Br)c(C(F)(F)F)c2)CC1` [Example 45, N-methyl-N-[1-(4-bromo-3-trifluoromethylphenyl)-2-pyrazolin-3-yl]acetamide], the IC50 against Cyclooxygenase and at Lipoxygenase was 1 µM throughout.

In the case of `O=CN(Cc1ccc(F)cc1)C1=NN(c2ccc(Br)c(C(F)(F)F)c2)CC1` [Example 18B, N-[1-(4-bromo-3-trifluoromethylphenyl)-2-pyrazolin-3-yl]-N-(4-fluorobenzyl)formamide], the results for the concentration for half-maximal inhibition (IC50) at Cyclooxygenase and against Lipoxygenase were 2 µM and 5 µM, respectively.

On to `C#CCN(C=O)C1=NN(c2cccc(C(F)(F)F)c2)CC1` [Example 4A, N-(2-propynyl)-N-[1-(3-trifluoromethylphenyl)-2-pyrazolin-3-yl]formamide], for which the half-inhibitory concentration (IC50) at Cyclooxygenase came out at 3 µM; on Lipoxygenase it was 0.5 µM.

On to `O=CN(CC=CCCl)C1=NN(c2cccc(C(F)(F)F)c2)CC1` [Example 34], for which the IC50 against Cyclooxygenase is 10 µM; against Lipoxygenase, 3 µM.

As to `CCCN(C=O)C1=NN(c2cccc(C(F)(F)F)c2)CC1` [Example 5A, N-(n-propyl)-N-[1-(3-trifluoromethylphenyl)-2-pyrazolin-3-yl]-formamide], the results for the IC50 at Cyclooxygenase and on Lipoxygenase were 10 µM and 1 µM, respectively.

In the case of `CNC1=NN(c2cccc(C(F)(F)F)c2)CC1` [Example 2B, 3-methylamino-1-(3-trifluoromethylphenyl)-2-pyrazoline], in series [1], the decomposition on storage result is given as “significant decomposition after six months”.

On to `CC(=O)N(C)C1=NN(c2cccc(C(F)(F)F)c2)CC1` [29&30B, N-methyl-N-[1-(3-trifluoromethylphenyl)-2-pyrazolin-3-yl] acetamide], for which the decomposition on storage entry in series [1] is listed as “no significant decomposition, 2 years from the outset of the Experiment”. Moreover, the half-inhibitory concentration (IC50) at Cyclooxygenase and against Lipoxygenase was 1 µM each time. The ED50 in the series on Prostaglandin E2 stood at 35 mg/kg; in the series with total leucocyte numbers, 57 mg/kg; in the series on female rats it was 15 mg/kg; in the series with female mice, 45 mg/kg.

Source of the values: EP0119450A1, “Preparation of aminopyrazolines and intermediates used therein” (THE WELLCOME FOUNDATION LIMITED, priority 1983, dated 1984).
